{"source": "paper PMC5421464", "about": "“Characterization of the single-subunit oligosaccharyltransferase STT3A from Trypanosoma brucei using synthetic peptides and lipid-linked oligosaccharide analogs” (Glycobiology, 2017)", "format_in_all_cases": "biochemical", "key": {"[1]": {"biological_target": "T1, TbSTT3A (Trypanosoma brucei, UniProt Q57W34)", "T1 sequence (Q57W34 1-801)": "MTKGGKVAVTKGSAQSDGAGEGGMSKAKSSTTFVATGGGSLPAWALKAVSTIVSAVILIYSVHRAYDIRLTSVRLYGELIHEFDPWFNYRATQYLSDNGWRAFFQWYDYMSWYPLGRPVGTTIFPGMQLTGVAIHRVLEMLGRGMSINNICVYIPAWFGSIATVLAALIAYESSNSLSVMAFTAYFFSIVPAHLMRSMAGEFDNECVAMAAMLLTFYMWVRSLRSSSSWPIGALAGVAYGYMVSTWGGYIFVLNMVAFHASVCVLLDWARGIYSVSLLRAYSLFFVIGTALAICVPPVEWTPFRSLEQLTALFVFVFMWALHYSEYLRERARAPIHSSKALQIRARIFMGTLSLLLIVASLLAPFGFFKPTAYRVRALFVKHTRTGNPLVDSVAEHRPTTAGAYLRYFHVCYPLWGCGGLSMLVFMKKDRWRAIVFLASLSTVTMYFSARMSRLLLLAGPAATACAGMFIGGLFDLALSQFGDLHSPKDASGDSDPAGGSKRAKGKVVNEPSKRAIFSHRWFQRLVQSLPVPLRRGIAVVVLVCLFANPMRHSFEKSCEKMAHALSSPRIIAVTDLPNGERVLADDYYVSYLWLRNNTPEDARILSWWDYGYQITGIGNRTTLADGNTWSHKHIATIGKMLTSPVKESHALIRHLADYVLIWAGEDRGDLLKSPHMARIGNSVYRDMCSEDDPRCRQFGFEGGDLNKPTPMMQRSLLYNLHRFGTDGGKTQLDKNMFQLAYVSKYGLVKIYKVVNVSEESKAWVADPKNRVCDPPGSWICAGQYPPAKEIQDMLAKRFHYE", "experiment": "In vitro glycosylation assay, turnover rate of acceptor peptides (Tricine SDS-PAGE fluorescence)", "protocol": "(§1) Fig. 2. Optimization of the acceptor peptide sequence. (A) Synthetic acceptor peptides are shown in single letter code. The acceptor asparagine (zero position of the sequon) is indicated in red. Glycosylation experiments were performed and the fluorescently labeled substrate (G0) and product (G1) were quantified following Tricine SDS-PAGE analysis. (B) Turnover rates after fitting the time points by linear regression using PRISM. Error bars indicate standard error of the fitting. (C) Kinetic analysis of substrate peptides: glycosylation experiments were performed with 20 nM purified TbSTT3A, 50 µM farnesyl-PP-chitobiose, 10 mM MnCl2, 150 mM NaCl, 20 mM Hepes pH 7.5, 0.035% DDM, 0.007% CHS and different concentrations of peptides varying from 2 to 60 µM. Data points reflect the mean of three separate measurements. Error bars indicate standard deviations. Data were fitted by nonlinear regression according to the Michaelis–Menten formula using PRISM. This figure is available in black and white in print and in color at Glycobiology online.\nReaction mixtures contained 20 nM purified TbSTT3A protein, 50µM farnesyl-PP-GlcNAc or farnesyl-PP-chitobiose, 10 mM MnCl2, 150 mM NaCl, 20 mM Hepes pH 7.5, 0.035% DDM, 0.007% CHS and 20 µM of the peptide. Reactions were incubated at 30°C. Samples were taken at different time points and reactions were stopped by the addition of 4X SDS Laemmli buffer. Samples were diluted 200-fold prior to analysis by Tricine SDS-PAGE consisting of a 16% resolving gel with 6 M urea, a 10% spacer gel and a 4% stacking gel ([Schägger 2006]). Fluorescent bands for peptide and glycopeptide were visualized by using a Typhoon Trio Plus imager (GE Healthcare) with excitation set at 488 nm and using a 526 nm SP emission filter. The amount of formed glycopeptide was determined from band intensities of fluorescence gel scans (ImageJ) ([Gerber et al. 2013]). Turnover rate determination was performed by fitting of the data to linear regression using PRISM software.\nSupplementary Figure 2: Glycosylation Assays with farnesyl-PP-GlcNAc. In vitro glycosylation experiments were performed with 20nM purified TbStt3A purified protein, 50µM Farnesyl-PP-GlcNAc or Farnesyl-PP-GlcNac2, 10 mM MnCl2, 150 mM NaCl, 20 mM Hepes pH 7.5, 0.035% DDM, 0.007% CHS and 10 µM of the peptide P1."}, "[2]": {"biological_target": "T1, TbSTT3A", "experiment": "Michaelis-Menten kinetics of the peptides", "conditions": "20 nM TbSTT3A, 50 µM farnesyl-PP-chitobiose, peptide 2-60 µM, 30°C", "protocol": "as §1\nFor Michaelis–Menten kinetics of the peptides, reaction mixtures containing 20 nM TbSTT3A protein, 50 µM farnesyl-PP-chitobiose, 10 mM MnCl2, 150 mM NaCl, 20 mM Hepes pH 7.5, 0.035% DDM and 0.007% CHS were incubated with varying concentrations (2–60 µM) of peptides P11, P13 and P14. Samples were taken at different time points and the turnover rate of the reactions were determined as before. Data were fitted by nonlinear regression according to the Michaelis–Menten formula using PRISM software."}, "[3]": {"biological_target": "T1, TbSTT3A", "experiment": "Michaelis-Menten kinetics of the LLO analogs", "conditions": "for kcat (LLO analog): 20 nM TbSTT3A, 10 µM acceptor peptide, varying LLO analog concentration", "protocol": "Fig. 3. (A) Structure of the LLO analogs synthesized (1a) (S)-Citronellyl-PP-Chitobiose, C10; (1b) farnesyl-PP-chitobiose, C15; (1c) (S)-NerylCitronellyl-PP-chitobiose, C20; (1d) (S)-farnesylCitronellyl-PP-chitobiose, C25. (B) Kinetic analysis of synthetic LLO analogs. Glycosylation experiments were performed with 20 nM purified TbSTT3A, 10 µM […], 10 mM MnCl2, 150 mM NaCl, 20 mM Hepes pH 7.5, 0.035% DDM, 0.007% CHS and different concentrations of synthetic LLO analogs. Data points reflect the mean of 3 separate measurements. Error bars indicate standard deviations. Data were fitted by nonlinear regression according to the Michaelis–Menten formula using PRISM software. This figure is available in black and white in print and in color at Glycobiology online.\nFor Michaelis–Menten kinetics of the LLO analogs, reaction mixtures containing 20 nM TbSTT3A protein, 10 µM peptide P11, 10 mM MnCl2, 150 mM NaCl, 20 mM Hepes pH 7.5, 0.035% DDM and 0.007% CHS were incubated with different concentrations of LLO analogs (10–900 µM, for 1a; 2–60 µM, for 1b; 1–50 µM, for 1c and 1–20 µM, for 1d). Samples were taken at different time points and turnover rates of the reactions were determined as before. Data were fitted by nonlinear regression according to the Michaelis–Menten formula using PRISM software."}, "[4]": {"biological_target": "T1, TbSTT3A", "experiment": "Inhibition analysis with LLO competitive inhibitors", "conditions": "20 nM TbSTT3A, 10 µM peptide P11, inhibitor 1-2500 µM preincubated 5 min, 15 µM farnesyl-PP-chitobiose 1b", "protocol": "Fig. 5. (A) Structure of the LLO inhibitors synthesized (34b) farnesyl-PP-C-chitobiose, C15; (34d) (S)-farnesylCitronellyl-PP-C-chitobiose, C25. (B) Kinetic analysis of synthetic LLO inhibitors. Glycosylation experiments were performed with 20 nM TbSTT3A protein, 10 µM peptide P11, 10 mM MnCl2, 150 mM NaCl, 20 mM Hepes pH 7.5, 0.035% DDM and 0.007% CHS. Samples were incubated with LLO competitive inhibitors (1–2500 µM) for 5 min before adding 15 µM of farnesyl-PP-chitobiose, 1b. Data points reflect the mean of three separate measurements. Error bars indicate standard deviations. Data were fitted by nonlinear regression using PRISM software. This figure is available in black and white in print and in color at Glycobiology online.\nFor inhibition analysis, reaction mixtures containing 20 nM TbSTT3A protein, 10 µM peptide P11, 10 mM MnCl2, 150 mM NaCl, 20 mM Hepes pH 7.5, 0.035% DDM and 0.007% CHS were incubated with different concentrations of LLO competitive inhibitors (1–2500 µM) for 5 min at 30°C. Reactions were started with addition of 15 µM of farnesyl-PP-chitobiose, 1b. Samples were taken at different time points and turnover rates of the reactions were determined as before. Data were fitted to nonlinear regression and IC50 was determined using PRISM software."}}, "note": "Marks after values point to notes of the source that are not given here. Ends that are not written are not given here. * marks the point of attachment. 5FAM = O=C1OC2(c3ccc(O)cc3Oc3cc(O)ccc32)c2ccc(C(=O)*)cc21"}
{"compound": "5CF-GSDANYTY (5FAM-GSDANYTY) [P11, 5-carboxyfluorescein labeled acceptor peptide]", "values": [{"measurement": "Glycosylation of acceptor peptide (result in words)", "setting": "[1]; farnesyl-PP-chitobiose 1b donor", "value": "highest turnover rate"}, {"measurement": "kcat (substrate peptide)", "setting": "[2]", "value": "37 ± 5^a pep/min"}]}
{"compound": "5CF-GSDANYTYTQ (5FAM-GSDANYTYTQ) [P14, 5-carboxyfluorescein labeled acceptor peptide, P11 elongated at the C-terminus]", "values": [{"measurement": "Increase in glycosylation turnover", "setting": "[1]; from the initial DANYTK to GSDANYTYTQ", "value": "about 3 fold"}, {"measurement": "kcat (substrate peptide)", "setting": "[2]", "value": "28 ± 1", "unit": "pep/min"}, {"measurement": "Km", "setting": "[2]; read-out: KM (substrate peptide)", "value": "28 ± 3", "unit": "µM"}]}
{"compound": "CC(=O)N[C@H]1[C@@H](OP(=O)(O)OP(=O)(O)OCC[C@@H](C)CCC=C(C)C)O[C@H](CO)[C@@H](O[C@@H]2O[C@H](CO)[C@@H](O)[C@H](O)[C@H]2NC(C)=O)[C@@H]1O", "note": "[1a, P1-2-acetamido-O-(2-acetamido-2-deoxy-β-D-glucopyranosyl)-(1-4)-2-deoxy-α-D-glucopyranosyl P2-(S)-3,7-dimethyloct-6-en-1-yl diphosphate]", "values": [{"measurement": "kcat (LLO analog)", "setting": "[3]", "value": "9.1 ± 0.5", "unit": "pep/min"}]}
{"compound": "CC(=O)N[C@H]1[C@@H](OP(=O)(O)OP(=O)(O)OC/C=C(\\C)CC/C=C(\\C)CCC=C(C)C)O[C@H](CO)[C@@H](O[C@@H]2O[C@H](CO)[C@@H](O)[C@H](O)[C@H]2NC(C)=O)[C@@H]1O", "note": "[1b, P1-2-acetamido-O-(2-acetamido-2-deoxy-β-D-glucopyranosyl)-(1-4)-2-deoxy-α-D-glucopyranosyl P2-(2E,6E)-3,7,11-Trimethyldodeca-2,6,10-trien-1-yl diphosphate]", "values": [{"measurement": "kcat (LLO analog)", "setting": "[3]", "value": "12 ± 1", "unit": "pep/min"}, {"measurement": "Apparent affinity lower compared to 1d", "setting": "[3]; from KM values, Table II", "value": 2, "unit": "fold"}]}
{"compound": "CC(=O)NC1C(OC2C(CO)OC(OP(=O)(O)OP(=O)(O)OCCC(C)CCC=C(C)CCC=C(C)CCC=C(C)C)C(NC(C)=O)C2O)OC(CO)C(O)C1O", "note": "[1c, P1-2-acetamido-O-(2-acetamido-2-deoxy-β-D-glucopyranosyl)-(1-4)-2-deoxy-α-D-glucopyranosyl P2-(3S,6Z,10Z)-3,7,11,15-tetramethylhexadeca-6,10,14-trien-1-yl diphosphate]", "values": [{"measurement": "kcat (LLO analog)", "setting": "[3]", "value": "23 ± 1", "unit": "pep/min"}]}
{"compound": "CC(=O)N[C@H]1[C@@H](OP(=O)(O)OP(=O)(O)OCC[C@@H](C)CC/C=C(/C)CC/C=C(\\C)CC/C=C(\\C)CCC=C(C)C)O[C@H](CO)[C@@H](O[C@@H]2O[C@H](CO)[C@@H](O)[C@H](O)[C@H]2NC(C)=O)[C@@H]1O", "note": "[1d, P1-2-acetamido-O-(2-acetamido-2-deoxy-β-D-glucopyranosyl)-(1-4)-2-deoxy-α-D-glucopyranosyl P2-(S,6Z,10E,14E)-3,7,11,15,19-pentamethylicosa-6,10,14,18-tetraen-1-yl diphosphate]", "values": [{"measurement": "kcat (LLO analog)", "setting": "[3]", "value": "16 ± 1", "unit": "pep/min"}]}
{"compound": "CC(=O)N[C@@H]1[C@@H](O)[C@H](O[C@@H]2O[C@H](CO)[C@@H](O)[C@H](O)[C@H]2NC(C)=O)[C@@H](CO)O[C@@H]1CP(=O)(O)OP(=O)(O)OC/C=C(\\C)CC/C=C(\\C)CCC=C(C)C", "note": "[34b, (((2S,3R,4R,5S,6R)-3-acetamido-5-(((2S,3R,4R,5S,6R)-3-acetamido-4,5-dihydroxy-6-(hydroxymethyl)tetrahydro-2H-pyran-2-yl)oxy)-4-hydroxy-6-(hydroxymethyl)tetrahydro-2H-pyran-2-yl)methyl)phosphonic ((2E,6E)-3,7,11-trimethyldodeca-2,6,10-trien-1-ylphosphoric) anhydride]", "values": [{"measurement": "IC50", "setting": "[4]", "value": "167 ± 14", "unit": "µM"}]}
{"compound": "CC(=O)N[C@@H]1[C@@H](O)[C@H](O[C@@H]2O[C@H](CO)[C@@H](O)[C@H](O)[C@H]2NC(C)=O)[C@@H](CO)O[C@@H]1CP(=O)(O)OP(=O)(O)OCC[C@@H](C)CC/C=C(/C)CC/C=C(\\C)CC/C=C(\\C)CCC=C(C)C", "note": "[34d, (((2S,3R,4R,5S,6R)-3-acetamido-5-(((2S,3R,4R,5S,6R)-3-acetamido-4,5-dihydroxy-6-(hydroxymethyl)tetrahydro-2H-pyran-2-yl)oxy)-4-hydroxy-6-(hydroxymethyl)tetrahydro-2H-pyran-2-yl)methyl)phosphonic ((S,6Z,10E,14E)-3,7,11,15,19-pentamethylicosa-6,10,14,18-tetraen-1-ylphosphoric) anhydride]", "values": [{"measurement": "IC50", "setting": "[4]", "value": "26 ± 3", "unit": "µM"}]}
